From patent US5079257A, “Indoloquinone compounds” (priority 1986, dated 1992)
Converted amounts (≈) assume the structure as drawn. Read-outs that look alike come from different tables or passages of the source.

Legend:
IgR37 cells melanoma = experiment: In vitro panel of human tumour lines (TNO): IgR-37; type: cell-based; conditions: about 72 hours; further: key: -: no inhibition of cell growth; +: total cell-kill
How it was run: (§1)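 Cells (5×10^4/ml, Dulbecco's medium + 10% FCS) grafted 48 h, then continuously exposed to compound (Hanks'/ethanol, final ethanol <1%) for about 72 h at 37°C, 10% CO2. Crystal violet fixation/staining; inhibiting concentration estimated qualitatively over increasing doses.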

[1] = system: R-1 cells (Rhabdomyosarcoma Cells); experiment: R-1 activity (bioliquid assay), cytotoxicity; type: cell-based; conditions: Rhabdomyosarcoma cell
How it was run: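 Rhabdomyosarcoma R-1 cells (~10^6 per dish) in Dulbecco's medium with 10% FCS were exposed to drug solution, which was then replaced by fresh medium. Cells were trypsinized after 48 hours and counted electronically.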

L1210 cells = experiment: L1210 activity in clonogenic assay (TNO Rijswijk); type: cell-based; conditions: Mus musculus, L1210, 192 h, read-out: ID-50 L1210, clonogenic assay
Source text: The indoloquinones II (formula II) have been tested in respect of their cytotoxic activity against L1210 cells and R-1 cells (Rhabdomyosarcoma Cells) in a bioliquid assay at the department of oncology of the Free University of Amsterdam (Table I). In addition to this seven compounds (E.O. 1, E.O. 2, E.O. 4, E.O. 7, E.O. 9, E.O. 16 and E.O. 17) have been tested on L1210 activity in a clonogenic assay at TNO, Rijswijk. Further, the lowest active doses of the compounds E.O. 1, E.O. 2, E.O. 4 and E.O. 9 have been determined at TNO Rijswijk, according to the method described by Lamberts et al. [Oncology, 40, 301 (1983)]. (Table II). Eight indoloquinones (E.O. 1, E.O. 2, E.O. 4, E.O. 4A, E.O. 8, E.O. 9, E.O. 33 and E.O. 35) have been tested in a panel of five human tumour lines (TNO Rijswijk; Table III). From the latter group three indoloquinones (E.O. 1, E.O. 4 and E.O. 9) have been selected for a cytotoxicity study, involving five slowly growing human tumour lines (University of Freiburg; Table IV).
The L1210 clonogenic assay used was an improved variant of the method described earlier by H. MARTIN et al. [Cancer Chemother., Rep., 51 451 (1967)] and L. M. van Putten et al. [Cancer Treat. Rep., 60, 373 (1976)] for the growth into colonies of L1210 cells in a soft agar medium. From a suspension culture ~100 L1210 Cells (0.1 ml) were plated into […] culture dishes (Falcon), containing 1 ml of soft agar growth medium and the compound to be tested in appropriate concentrations. The soft agar growth medium consisted of Dulbecco medium supplemented with 15.8% horse serum, 60 μmol 2-mercapto-ethanol, 20 mg/ml L-asparagine and 0.3% bacto agar (Difco).
The culture dishes were incubated at 37° C. in an atmosphere of 1% CO2 in humidified air for 8 days. After this period of continuous drug exposure, colonies were counted and dose-effect curves were made.

WiDr cells; colon tumour = experiment: In vitro panel of human tumour lines (TNO): WiDr; type: cell-based; conditions: about 72 hours; further: key: -: no inhibition of cell growth; +: total cell-kill
How it was run: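 Cells in Dulbecco's medium with 10% foetal calf serum were seeded 48 h, then exposed continuously to increasing compound concentrations (final ethanol <1%) for about 72 h at 37° in 10% CO2. Crystal violet staining after fixation; inhibiting concentration estimated qualitatively.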

[2] = system: T 24 cells; bladder carcinoma; experiment: In vitro panel of human tumour lines (TNO): T 24; type: cell-based; conditions: about 72 hours; further: key: -: no inhibition of cell growth; +: total cell-kill
How it was run: as §1

Renal tumour line = experiment: Colony inhibition in vitro, continuous drug exposure (Freiburg); type: cell-based; conditions: Homo sapiens, read-out: colony formation treated/control (T/C), Renal; for activity at 1 µg/mL: 1.0 μg/ml
Experimental: (§2) Three indoloquinones were tested at the University of Freiburg with respect to their in vitro inhibition of colony formation of the following five human tumour cell lines: lung-NSCLC, breast, renal and two colon lines.

[3] = system: Mammary (breast) tumour line; experiment: as above; type: cell-based; conditions: Homo sapiens, read-out: colony formation treated/control (T/C), Mammary; for activity at 1 µg/mL: 1.0 μg/ml
Experimental: as §2

Colon 1 tumour line = experiment: as above; type: cell-based; conditions: Homo sapiens, read-out: colony formation treated/control (T/C), Colon 1; for activity at 1 µg/mL: 1.0 μg/ml
Experimental: as §2

Colon 2 tumour line = experiment: as above; type: cell-based; conditions: Homo sapiens, read-out: colony formation treated/control (T/C), Colon 2; for activity at 1 µg/mL: 1.0 μg/ml
Experimental: as §2

lung-NSCLC tumour line = experiment: as above; type: cell-based, human; conditions: for activity at 1 µg/mL: 1.0 μg/ml
Experimental: as §2

[4] = Homo sapiens, read-out: colony formation treated/control (T/C), Lung
[5] = Table I, bioliquid assay, read-out: ID-50 R-1
[6] = 8 days continuous exposure, TNO Rijswijk
[7] = Homo sapiens, 0.01 μg/ml, read-out: colony formation treated/control (T/C), Lung
[8] = Homo sapiens, 0.1 μg/ml, read-out: colony formation treated/control (T/C), Lung

| SMILES | in vitro activity score, IgR-37 (IgR37 cells melanoma; 0.01 μg/ml) | in vitro activity score, IgR-37 (IgR37 cells melanoma; 0.1 μg/ml) | in vitro activity score, IgR-37 (IgR37 cells melanoma; 1.0 μg/ml) | in vitro activity score, IgR-37 (IgR37 cells melanoma; 10 μg/ml) | in vitro activity score, WiDr (WiDr cells; colon tumour; 0.01 μg/ml) | in vitro activity score, WiDr (WiDr cells; colon tumour; 0.1 μg/ml) | in vitro activity score, WiDr (WiDr cells; colon tumour; 10 μg/ml) | in vitro activity score, T 24 ([2]; 0.01 μg/ml) | in vitro activity score, T 24 ([2]; 0.1 μg/ml) | in vitro activity score, T 24 ([2]; 1.0 μg/ml) | in vitro activity score, T 24 ([2]; 10 μg/ml) | activity against the lung cell line (lung-NSCLC tumour line; 0.01 μg/ml) | IC50 [1, 5] [µg/mL] | IC50 (L1210 cells; [6]) [µg/mL] | in vitro activity score, WiDr (WiDr cells; colon tumour; 1.0 μg/ml) | activity at 0.1 µg/mL (Renal tumour line; 0.1 μg/ml) [%] | activity at 1 µg/mL (Renal tumour line) [%] | activity at 0.01 µg/mL ([3]; 0.01 μg/ml) [%] | activity at 0.1 µg/mL ([3]; 0.1 μg/ml) [%] | activity at 1 µg/mL [3] [%] | other results |
| --- | --- | --- | --- | --- | --- | --- | --- | --- | --- | --- | --- | --- | --- | --- | --- | --- | --- | --- | --- | --- | --- |
| CC(=O)OC/C=C/c1c(COC(C)=O)c2c(n1C)C(=O)C=C(N1CC1)C2=O [E.O. 4, 3-Acetoxymethyl-5-aziridino-1-methyl-2-[1H-indole-4,7-dione]prop-β-en-α-yl acetate] | - | - | + | + | - | - | + | - | - | + | + | active |  |  |  |  |  |  |  |  | IC50 ([1]; read-out: ID-50 R-1, Table VIII): 0.025 µg/mL; IC50 (L1210 cells): < 1 µg/mL; activity at 0.001 µg/mL (Renal tumour line): 88%; activity at 0.01 µg/mL (Renal tumour line): 88%; activity at 0.1 µg/mL (Renal tumour line): 41%; activity at 0.001 µg/mL [3]: 95%; activity at 0.01 µg/mL [3]: 46%; activity at 0.1 µg/mL [3]: 0%; activity at 0.001 µg/mL (Colon 1 tumour line): 51%; activity at 0.01 µg/mL (Colon 1 tumour line): 56%; activity at 0.1 µg/mL (Colon 1 tumour line): 56%; activity at 0.001 µg/mL (Colon 2 tumour line): 86%; activity at 0.01 µg/mL (Colon 2 tumour line): 70%; activity at 0.1 µg/mL (Colon 2 tumour line): 11%; activity at 0.001 µg/mL (lung-NSCLC tumour line; [4]): 64%; activity at 0.01 µg/mL (lung-NSCLC tumour line; [4]): 8%; activity at 0.1 µg/mL (lung-NSCLC tumour line; [4]): 0% |
| Cn1c(/C=C/CO)c(CO)c2c1C(=O)C=C(N1CC1)C2=O [E.O. 9, 5-Aziridino-3-hydroxymethyl-1-methyl-2-[1H-indole-4,7-dione]prop-β-en-α-ol] | + | + | + | + | - | + | + | - | + | + | + | active | 0.003 (≈ 0.0104 µM) | 0.8 (≈ 2.77 µM) | + | 8 | 0 | 38 | 2 | 0 | IC50 ([1]; Table VIII, read-out: ID-50 R-1): 0.0034 µg/mL (≈ 0.0118 µM); activity at 0.01 µg/mL (Renal tumour line; 0.01 μg/ml): 123%; activity at 0.01 µg/mL (Colon 1 tumour line; 0.01 μg/ml): 51%; activity at 0.1 µg/mL (Colon 1 tumour line; 0.1 μg/ml): 47%; activity at 1 µg/mL (Colon 1 tumour line): 9%; activity at 0.01 µg/mL (Colon 2 tumour line; 0.01 μg/ml): 136%; activity at 0.1 µg/mL (Colon 2 tumour line; 0.1 μg/ml): 20%; activity at 1 µg/mL (Colon 2 tumour line): 1%; activity at 0.01 µg/mL (lung-NSCLC tumour line; [7]): 0%; activity at 0.1 µg/mL (lung-NSCLC tumour line; [8]): 0%; activity at 1 µg/mL (lung-NSCLC tumour line; [4]): 0% |
| COC(=O)OC/C=C/c1c(COC(=O)OC)c2c(n1C)C(=O)C=C(OC)C2=O [E.O. 2, Methyl 5-methoxy-3-methoxycarbonyloxymethyl-1-methyl-2-[1H-indole-4,7 dione]prop-β-en-α-yl carbonate] | - | - | - | + | - | - | + | - | - | - | + |  | 0.4 (≈ 1.02 µM) | 3.7 (≈ 9.41 µM) | - |  |  |  |  |  |  |
| COC1=CC(=O)c2c(c(COC(C)=O)c(/C=C/COC(C)=O)n2C)C1=O [E.O. 1, 3-Acetoxymethyl-5-methoxy-1-methyl-2-[1H-indole-4,7-dione]prop-β-en-α-yl acetate] | - | - |  | + | - | - | + | - | - |  |  |  | 2.3 | 2.5 | - | 68 | 0 | 99 | 0 | 0 | IC50 ([1]; Table VI, read-out: ID-50 R-1): 0.3 µg/mL; activity at 0.01 µg/mL (Colon 1 tumour line; 0.01 μg/ml): 108%; activity at 0.1 µg/mL (Colon 1 tumour line; 0.1 μg/ml): 37%; activity at 1 µg/mL (Colon 1 tumour line): 21%; activity at 0.01 µg/mL (Colon 2 tumour line; 0.01 μg/ml): 71%; activity at 0.1 µg/mL (Colon 2 tumour line; 0.1 μg/ml): 24%; activity at 1 µg/mL (Colon 2 tumour line): 3%; activity at 0.01 µg/mL (lung-NSCLC tumour line; [7]): 48%; activity at 0.1 µg/mL (lung-NSCLC tumour line; [8]): 4%; activity at 1 µg/mL (lung-NSCLC tumour line; [4]): 0% |
